Test results taken from patent US20160220466A1, “HAIR TREATMENT COMPOSITION” (Lonza Ltd., priority 2015, published 2016).

Tests used:
[1] = system: level 9 bleached light brown hair; test: Differential Scanning Calorimetry of treated hair tress (denaturation temperature); details: 1.5% compound in water, pH4.5; tress soaked at 35° C. for 10 minutes, dried; DSC 90-180° C. at 4° C. per minute
Protocol: A 2.5 g tress of level 9 bleached light brown hair was treated with the aforementioned composition as follows.
a) Soaked the tress in 25 ml solution of the composition at 35° C. for 10 minutes
b) Excess liquor was squeezed off
c) Dry the hair tress using a hair drier.
The hair tress was then evaluated by Differential Scanning Calorimetry (Perkin Elmer DSC6000). Samples (˜5 mg) were cut and placed into a stainless steel pan and 50 microlitres deionised Water was added before sealing. The heating profile was between 90-180° C. at 4° C. per minute.

[2] = system: level 9 bleached light brown hair; test: Fourier Transform Infrared Spectroscopy (FTIR, UATR) of treated hair tress; details: 1.5% compound in water, pH4.5; tress soaked at 35° C. for 10 minutes, dried; same tresses as DSC
Protocol: (§1) The same hair tresses were also analysed by Fourier Transform Infrared Spectroscopy (FTIR) (Perkin Elmer Frontier) using an UATR attachment. […] For example, in the FTIR spectra, the peaks at 1853 cm^−1 and 1547 cm^−1 are peaks which are neither present in the AADEG itself or the untreated hair, and conversely peaks at 1888 cm^−1 and 1164 cm^−1 are present in the untreated hair, but not in the treated hair.
as §1, with “1713” for “1853”, “1481” for “1547”, “1351” for “1888”, “1303” for “1164”

| SMILES | denaturation temperature (Td) of treated hair compared to hair treated with water alone [1] | 2nd derivative FTIR spectra of treated hair compared to untreated samples [2] |
| --- | --- | --- |
| CC(=O)CC(=O)OCCOCCOCCOC(=O)CC(C)=O [Acetoacetylated Triethylene Glycol] | significant increase |  |
| CC(=O)CC(=O)OCCOCCOC(=O)CC(C)=O [Acetoacetylated Diethylene Glycol] | significant increase | a number of new bonds |
| CC(=O)CC(=O)OCCOC(=O)CC(C)=O [Acetoacetylated Ethylene Glycol] | significant increase | a number of new bonds |
